Data as given in ChEMBL document CHEMBL1151225, “New neolignans that inhibit DNA polymerase beta lyase” (J Nat Prod, 2004).

These molecules were tested against DNA polymerase beta (Homo sapiens, UniProt P06746) (assay: Inhibition of DNA polymerase beta lyase activity).
Work on `C=CC[C@@]12C=C(O)C(=O)[C@](OC)([C@H](c3ccc4c(c3)OCO4)[C@H]1C)[C@@H]2O` yielded an IC50 of 21.6 µM.
Work on `C=CCc1c(OC)cc(OC)c2c1OCO2` yielded an IC50 of 18.6 µM.
`C=CCc1cc2c(c(OC)c1OC)OCO2` [DILLAPIOLE] gave an IC50 greater than 50 µM.
In the case of `C=CC[C@]12C[C@@H](OC)C(=O)C(OC)=C1O[C@H](c1ccc3c(c1)OCO3)[C@H]2C`, the IC50 is reported as 12.3 µM.
In the case of `C=CC[C@@]12C[C@H](OC)[C@@H](O)[C@@](OC)([C@@H]1O)[C@@H](c1ccc3c(c1)OCO3)[C@@H]2C` [CANELLIN A], the IC50 is reported as 26.5 µM.
`C=CC[C@@]12C=C(OC)C(=O)[C@](O)([C@H](c3ccc4c(c3)OCO4)[C@H]1C)[C@@H]2O` was tested, and the IC50 was 15.3 µM.
Molecule `COc1cc2c(c(OC)c1/C=C/CO)OCO2` has an IC50 of 43.5 µM.
`C=CC[C@@]12C=C(O)C(=O)[C@](O)([C@H](c3ccc4c(c3)OCO4)[C@H]1C)[C@@H]2O` was tested, and the IC50 was greater than 50 µM.
Work on `COc1c(/C=C/CO)cc2c(c1OC)OCO2` yielded an IC50 greater than 50 µM.
In the case of `C=CC[C@@]12CC(=O)[C@@H](O)[C@@](OC)([C@@H]1O)[C@@H](c1ccc3c(c1)OCO3)[C@@H]2C` [CANELLIN C], the IC50 is reported as 32.4 µM.
`C=CC[C@@]12C=C(OC)C(=O)[C@](OC)([C@H](c3ccc4c(c3)OCO4)[C@H]1C)[C@@H]2O` showed an IC50 greater than 50 µM.
`C=CCc1c(OC)cc2c(c1OC)OCO2` gave an IC50 of 34.2 µM.
